In US10793553B2, “TLR7/8 antagonists and uses thereof” (Merck Patent GmbH, priority 2017, dated 2020):
pIC50: −log10 of the molar value. Structures can show the parent of a compound that is named as a salt.

Legend:
TLR7 = molecular target: T1, TLR7 (Homo sapiens, UniProt Q9NYK1); assay: HEK TLR7 Cell Assay; format: cell-based; conditions: TLR7/NFKb HEK cells, R848 agonist 10 uM final, Steady-Glo readout
T1 construct: expressed in transfected cells; host or cells: HEK cells carrying TLR7 and an NFkB luciferase reporter
T1 sequence (Q9NYK1 27-1049): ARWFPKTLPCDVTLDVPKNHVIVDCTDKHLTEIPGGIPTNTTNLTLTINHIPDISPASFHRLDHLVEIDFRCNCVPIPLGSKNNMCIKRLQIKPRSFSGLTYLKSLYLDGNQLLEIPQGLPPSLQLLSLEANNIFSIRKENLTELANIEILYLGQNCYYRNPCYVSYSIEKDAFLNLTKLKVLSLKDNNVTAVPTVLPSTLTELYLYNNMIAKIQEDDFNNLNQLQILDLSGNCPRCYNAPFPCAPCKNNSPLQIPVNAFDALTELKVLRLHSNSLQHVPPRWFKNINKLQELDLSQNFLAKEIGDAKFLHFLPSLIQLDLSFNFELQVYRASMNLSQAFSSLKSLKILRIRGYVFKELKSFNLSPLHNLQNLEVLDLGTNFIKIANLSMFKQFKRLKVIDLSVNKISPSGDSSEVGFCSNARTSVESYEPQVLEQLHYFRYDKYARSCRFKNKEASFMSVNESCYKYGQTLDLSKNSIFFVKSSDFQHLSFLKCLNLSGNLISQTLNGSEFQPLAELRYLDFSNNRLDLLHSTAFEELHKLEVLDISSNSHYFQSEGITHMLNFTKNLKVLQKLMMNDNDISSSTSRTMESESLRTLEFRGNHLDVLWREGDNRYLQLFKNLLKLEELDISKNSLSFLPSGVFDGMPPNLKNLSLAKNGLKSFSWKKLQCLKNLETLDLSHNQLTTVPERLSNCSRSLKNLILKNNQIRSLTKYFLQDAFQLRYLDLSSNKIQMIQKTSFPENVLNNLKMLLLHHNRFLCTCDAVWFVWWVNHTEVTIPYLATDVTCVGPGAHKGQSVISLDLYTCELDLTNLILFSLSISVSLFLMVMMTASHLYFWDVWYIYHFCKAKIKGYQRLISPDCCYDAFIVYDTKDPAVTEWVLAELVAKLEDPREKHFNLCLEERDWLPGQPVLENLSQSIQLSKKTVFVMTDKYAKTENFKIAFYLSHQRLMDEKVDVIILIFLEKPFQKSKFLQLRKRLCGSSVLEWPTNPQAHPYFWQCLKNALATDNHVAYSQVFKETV
Description: Example 24: HEK TLR7 Cell Assay
(§1) Into 384 CulturePlates (Corning 3707) was placed 5000 c/w of TLR7/NFKb HEK cells in 30 uL DMEM without Phenol red (gibco #31053) and 10% FCS-HI, 2 mM L-Glutamine, 1% Pen/Strept. The cells are incubated for 24 h at 37 degrees Celsius, and 10% carbon dioxide. Dispense 3 uL of controls, standards, and compounds to wells, incubate for 30 min then add 3 uL of R848 (10 uM final concentration) agonist in 20 mM Hepes. Incubate for 5 hours and then allow to stand at room temperature for 15 min. Add 10 uL of Steady-Glo substrate reagent and shake assay plate for 5 min at 1500 rpm. Let the assay plate sit for 30 min at room temperature and then read plate on EnVision.

TLR8 = molecular target: T2, TLR8 (Homo sapiens, UniProt Q9NR97); assay: HEK TLR8 Cell Assay; format: cell-based; conditions: TLR8/NFKb HEK cells, R848 agonist 30 uM final, Steady-Glo readout
T2 construct: expressed in transfected cells; host or cells: HEK cells carrying TLR8 and an NFkB luciferase reporter
T2 sequence (Q9NR97 27-1041): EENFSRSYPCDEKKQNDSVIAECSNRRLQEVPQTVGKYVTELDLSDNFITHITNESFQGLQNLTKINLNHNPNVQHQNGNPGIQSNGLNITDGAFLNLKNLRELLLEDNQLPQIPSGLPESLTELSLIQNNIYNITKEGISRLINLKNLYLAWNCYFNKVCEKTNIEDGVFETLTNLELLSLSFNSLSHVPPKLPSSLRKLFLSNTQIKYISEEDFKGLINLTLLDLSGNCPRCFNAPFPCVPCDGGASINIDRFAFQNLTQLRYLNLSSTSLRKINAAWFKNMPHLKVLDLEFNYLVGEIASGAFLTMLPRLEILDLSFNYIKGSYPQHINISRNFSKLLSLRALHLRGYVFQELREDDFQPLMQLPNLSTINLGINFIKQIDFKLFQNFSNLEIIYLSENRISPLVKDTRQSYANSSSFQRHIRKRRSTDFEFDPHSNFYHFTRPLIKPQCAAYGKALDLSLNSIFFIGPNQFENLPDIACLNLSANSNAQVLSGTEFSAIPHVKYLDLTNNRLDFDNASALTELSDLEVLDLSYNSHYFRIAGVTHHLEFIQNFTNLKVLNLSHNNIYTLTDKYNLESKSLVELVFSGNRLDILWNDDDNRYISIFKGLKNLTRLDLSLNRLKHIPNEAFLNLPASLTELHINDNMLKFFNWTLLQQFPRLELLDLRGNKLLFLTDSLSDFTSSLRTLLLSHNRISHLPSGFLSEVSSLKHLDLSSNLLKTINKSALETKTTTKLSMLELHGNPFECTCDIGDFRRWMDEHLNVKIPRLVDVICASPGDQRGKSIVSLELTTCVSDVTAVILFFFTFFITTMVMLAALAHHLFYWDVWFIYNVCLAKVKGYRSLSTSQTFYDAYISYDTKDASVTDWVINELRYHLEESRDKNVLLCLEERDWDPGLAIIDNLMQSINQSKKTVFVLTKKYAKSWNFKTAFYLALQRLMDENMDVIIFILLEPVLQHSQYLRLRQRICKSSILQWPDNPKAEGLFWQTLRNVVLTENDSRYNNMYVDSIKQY
Description: Example 25: HEK TLR8 Cell Assay
as §1, with “TLR8/NFKb” for “TLR7/NFKb”, “(30” for “(10”

| Compound | pIC50 (TLR7) | pIC50 (TLR8) |
| --- | --- | --- |
| C[C@@H]1CN(c2ccc(C#N)c3nccnc23)C[C@@H]1N [Compound 1, 8-[(3R,4R)-3-amino-4-methylpyrrolidin-1-yl]quinoxaline-5-carbonitrile] | > 6.00 | 5.00 to 6.00 |
| C[C@@H]1CN(c2ccc(C(F)(F)F)c3ncccc23)C[C@@H]1NC(=O)CC1(F)CCN(C)CC1 [Compound 26, 2-(4-fluoro-1-methylpiperidin-4-yl)-N-[(3R,4R)-4-methyl-1-[8-(trifluoromethyl)quinolin-5-yl]pyrrolidin-3-yl]acetamide] | > 6.00 | > 6.00 |
| Cc1ncc(N2C[C@@H](C)[C@@H](NC(=O)CC3CN(C)C3)C2)c2cccnc12 [Compound 53, 2-(1-methyl-azetidin-3-yl)-N-[(3R,4R)-4-methyl-1-(8-methyl-[1,7]naphthyridin-5-yl)-pyrrolidin-3-yl]-acetamide] | 5.00 to 6.00 | < 5.00 |
| C[C@@H]1CN(c2ccc(C(F)(F)F)c3ncccc23)C[C@@H]1NC(=O)CC1CCCN(C)C1 (single isomer, unassigned) [Compound 20] | > 6.00 | 5.00 to 6.00 |
| C[C@@H]1CN(c2ccc(C#N)c3nccnc23)C[C@@H]1NC(=O)CC1CCCN(C)C1 (single isomer, unassigned) [Compound 3] | > 6.00 | > 6.00 |
| Cc1ccc(N2C[C@@H](C)[C@@H](NC(=O)CC3CCN(C)CC3(F)F)C2)c2cccnc12 (single isomer, unassigned) [Compound 43] | 5.00 to 6.00 | < 5.00 |
| C[C@@H]1CN(c2ccc(C#N)c3nccnc23)C[C@@H]1NC(=O)CC1(C)CCN(C)CC1 [Compound 8, N-[(3R,4R)-1-(8-cyanoquinoxalin-5-yl)-4-methylpyrrolidin-3-yl]-2-(1,4-dimethylpiperidin-4-yl)acetamide] | > 6.00 | > 6.00 |
| Cc1cc2c(N3CCC(CNCCN4CCCCC4)C3)ccnc2n1C (stereo not shown) [Compound 55, [1-(1,2-Dimethyl-1H-pyrrolo[2,3-b]pyridin-4-yl)-pyrrolidin-3-ylmethyl]-(2-piperidin-1-yl-ethyl)-amine] | 5.00 to 6.00 | < 5.00 |
| Cc1ccc(N2C[C@@H](C)[C@@H](N)C2)c2cccnc12 [Compound 33, (3R,4R)-4-methyl-1-(8-methylquinolin-5-yl)pyrrolidin-3-amine] | < 5.00 | < 5.00 |
| Cc1ccc(N2C[C@@H](C)[C@@H](NC(=O)[C@@H](O)C(C)C)C2)c2cccnc12 [Compound 47, (2S)-2-hydroxy-3-methyl-N-[(3R,4R)-4-methyl-1-(8-methylquinolin-5-yl)pyrrolidin-3-yl]butanamide] | 5.00 to 6.00 | < 5.00 |
| Cc1ccc(N2C[C@@H](C)[C@@H](NC(=O)C(O)C3CC3)C2)c2cccnc12 (single isomer, unassigned) [Compound 45] | < 5.00 | < 5.00 |
| C[C@@H]1CN(c2ccc(C#N)c3nccnc23)C[C@@H]1NC(=O)CC1CCN(C)CC1 [Compound 2, N-[(3R,4R)-1-(8-cyanoquinoxalin-5-yl)-4-methylpyrrolidin-3-yl]-2-(1-methylpiperidin-4-yl)acetamide] | > 6.00 | > 6.00 |
| CCN(CC)CCNC(=O)C1CCN(c2ccnc3nccnc23)C1 (stereo not shown) [Compound 54, 1-pyrido[2,3-b]pyrazin-8-yl-pyrrolidine-3-carboxylic acid (2-diethylamino-ethyl)-amide] | < 5.00 | < 5.00 |
| Cc1ccc(N2C[C@@H](C)[C@@H](NC(=O)CC3CCCN(C)C3)C2)c2cccnc12 (single isomer, unassigned) [Compound 36] | > 6.00 | 5.00 to 6.00 |
| C[C@@H]1CN(c2ccc(C#N)c3nccnc23)C[C@@H]1NC(=O)C(O)C1CC1 (single isomer, unassigned) [Compound 13] | 5.00 to 6.00 | < 5.00 |
| C[C@@H]1CN(c2ccc(C#N)c3nccnc23)C[C@@H]1NC(=O)CC1CCN(C)C1 (single isomer, unassigned) [Compound 6] | > 6.00 | > 6.00 |
| Cc1ccc(N2C[C@@H](C)[C@@H](NC(=O)CC3CCN(C)CC3)C2)c2cccnc12 [Compound 34, N-[(3R,4R)-4-methyl-1-(8-methylquinolin-5-yl)pyrrolidin-3-yl]-2-(1-methylpiperidin-4-yl)acetamide] | > 6.00 | > 6.00 |
| C[C@@H]1CN(c2ccc(C(F)(F)F)c3ncccc23)C[C@@H]1NC(=O)CC1CCN(C)CC1(F)F (single isomer, unassigned) [Compound 28] | 5.00 to 6.00 | 5.00 to 6.00 |
| Cc1ncc(N2C[C@@H](C)[C@@H](N)C2)c2cccnc12 [Compound 51, (3R,4R)-4-methyl-1-(8-methyl-[1,7]naphthyridin-5-yl)-pyrrolidin-3-ylamine hydrochloride] | 5.00 to 6.00 | < 5.00 |
| C[C@@H]1CN(c2ccc(C(F)(F)F)c3ncccc23)C[C@@H]1NC(=O)CC1CCCN(C)C1 (single isomer, unassigned) [Compound 19] | > 6.00 | > 6.00 |
| C[C@@H]1CN(c2ccc(C#N)c3nccnc23)C[C@@H]1NC(=O)CC1(F)CCNCC1 [Compound 9, N-[(3R,4R)-1-(8-cyanoquinoxalin-5-yl)-4-methylpyrrolidin-3-yl]-2-(4-fluoropiperidin-4-yl)acetamide] | > 6.00 | > 6.00 |
| Cc1ccc(N2C[C@@H](C)[C@@H](NC(=O)CC3CCN(C)C3)C2)c2cccnc12 (single isomer, unassigned) [Compound 37] | > 6.00 | 5.00 to 6.00 |
| CC(C)[C@@H](O)C(=O)N[C@H]1CN(c2ccc(C(F)(F)F)c3ncccc23)C[C@H]1C [Compound 32, (2R)-2-hydroxy-3-methyl-N-[(3R,4R)-4-methyl-1-[8-(trifluoromethyl)quinolin-5-yl]pyrrolidin-3-yl]butanamide] | < 5.00 | < 5.00 |
